From PubChem BioAssay (NCI)
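Grown in 96-well plates, cells were treated for 48 hours with each compound at five concentrations. Insufficient inhibition: endpoint recorded as highest concentration tested. The concentration for 50% growth inhibition is given as GI50. TGI is the concentration that stops growth completely.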

Assays:
Experiment in all cases: NCI tumour cell line growth inhibition, 48 h
UACC-257 melanoma = system: UACC-257 melanoma
RPMI-8226 leukemia = system: RPMI-8226 leukemia
CCRF-CEM leukemia = system: CCRF-CEM leukemia
COLO 205 colon = system: COLO 205 colon
CAKI-1 renal = system: CAKI-1 renal
K-562 leukemia = system: K-562 leukemia
MDA-MB-231 breast = system: MDA-MB-231 breast
SF-268 CNS = system: SF-268 CNS
786-0 renal = system: 786-0 renal
HCC-2998 colon = system: HCC-2998 colon
M14 melanoma = system: M14 melanoma
RXF 393 renal = system: RXF 393 renal
PC-3 prostate = system: PC-3 prostate
NCI/ADR-RES ovarian = system: NCI/ADR-RES ovarian
SR leukemia = system: SR leukemia
OVCAR-8 ovarian = system: OVCAR-8 ovarian
HT29 colon = system: HT29 colon
NCI-H23 lung = system: NCI-H23 lung
EKVX NSCLC = system: EKVX NSCLC
OVCAR-5 ovarian = system: OVCAR-5 ovarian
MDA-MB-435 = system: MDA-MB-435
SK-MEL-2 melanoma = system: SK-MEL-2 melanoma
NCI-H522 lung = system: NCI-H522 lung
HCT-15 colon = system: HCT-15 colon
SK-MEL-5 melanoma = system: SK-MEL-5 melanoma
UACC-62 melanoma = system: UACC-62 melanoma
NCI-H226 lung = system: NCI-H226 lung
SK-OV-3 ovarian = system: SK-OV-3 ovarian
LOX IMVI melanoma = system: LOX IMVI melanoma
SF-295 CNS = system: SF-295 CNS
SW-620 colon = system: SW-620 colon
HS 578T breast = system: HS 578T breast
SK-MEL-28 melanoma = system: SK-MEL-28 melanoma
SN12C renal = system: SN12C renal
HCT-116 colon = system: HCT-116 colon
T-47D breast = system: T-47D breast
DU-145 prostate = system: DU-145 prostate
MOLT-4 leukemia = system: MOLT-4 leukemia
MCF7 breast = system: MCF7 breast
A549 NSCLC = system: A549 NSCLC
ACHN renal = system: ACHN renal
TK-10 renal = system: TK-10 renal
OVCAR-3 ovarian = system: OVCAR-3 ovarian
HOP-62 NSCLC = system: HOP-62 NSCLC
U251 CNS = system: U251 CNS
BT-549 breast = system: BT-549 breast
MALME-3M melanoma = system: MALME-3M melanoma
SNB-75 CNS = system: SNB-75 CNS
UO-31 renal = system: UO-31 renal
KM12 colon = system: KM12 colon
NCI-H460 lung = system: NCI-H460 lung
A498 renal = system: A498 renal
SF-539 CNS = system: SF-539 CNS
SNB-19 CNS = system: SNB-19 CNS
IGROV1 ovarian = system: IGROV1 ovarian
OVCAR-4 ovarian = system: OVCAR-4 ovarian
HOP-92 NSCLC = system: HOP-92 NSCLC
HL-60(TB) leukemia = system: HL-60(TB) leukemia

Work on `O=[N+]([O-])c1cc2c(c([N+](=O)[O-])c1)Nc1ccccc1O2` yielded a GI50 (UACC-257 melanoma) of 3.74 µM, a TGI (UACC-257 melanoma) of 39.1 µM and a GI50 (RPMI-8226 leukemia) of 2.96 µM. For the same compound, the TGI (RPMI-8226 leukemia) was 8.2 µM, the GI50 (CCRF-CEM leukemia) was 13.2 µM and the TGI (CCRF-CEM leukemia) was over 100 µM. For the same compound, the GI50 (COLO 205 colon) was 10.5 µM, the TGI (COLO 205 colon) was 27.8 µM and the GI50 (CAKI-1 renal) was 5.36 µM. It also gave a TGI (CAKI-1 renal) of 26.9 µM, a GI50 (K-562 leukemia) of 4.64 µM and a TGI (K-562 leukemia) of over 100 µM. It also gave a GI50 (MDA-MB-231 breast) of 6.38 µM, a TGI (MDA-MB-231 breast) of 30.7 µM and a GI50 (SF-268 CNS) of 6.53 µM. The TGI (SF-268 CNS) was over 100 µM, the GI50 (786-0 renal) was 5.81 µM and the TGI (786-0 renal) was 39.1 µM. For the same compound, the GI50 (HCC-2998 colon) was 7.75 µM, the TGI (HCC-2998 colon) was over 100 µM and the GI50 (M14 melanoma) was 11.5 µM. It also gave a TGI (M14 melanoma) of over 100 µM, a GI50 (RXF 393 renal) of 7.35 µM and a TGI (RXF 393 renal) of 46.3 µM. It also gave a GI50 (PC-3 prostate) of 4.12 µM, a TGI (PC-3 prostate) of 34 µM and a GI50 (NCI/ADR-RES ovarian) of 3.41 µM. It also gave a TGI (NCI/ADR-RES ovarian) of 55.4 µM, a GI50 (SR leukemia) of 5.46 µM and a TGI (SR leukemia) of over 100 µM. It also gave a GI50 (OVCAR-8 ovarian) of 10 µM, a TGI (OVCAR-8 ovarian) of over 100 µM and a GI50 (HT29 colon) of 6.41 µM. It also gave a TGI (HT29 colon) of 66.8 µM, a GI50 (NCI-H23 lung) of 2.78 µM and a TGI (NCI-H23 lung) of 87.2 µM. For the same compound, the GI50 (EKVX NSCLC) was 4.4 µM, the TGI (EKVX NSCLC) was 51.7 µM and the GI50 (OVCAR-5 ovarian) was 14.9 µM. The TGI (OVCAR-5 ovarian) was 62.2 µM, the GI50 (MDA-MB-435) was 8 µM and the TGI (MDA-MB-435) was over 100 µM. It also gave a GI50 (SK-MEL-2 melanoma) of 7.48 µM, a TGI (SK-MEL-2 melanoma) of 40.3 µM and a GI50 (NCI-H522 lung) of 2.78 µM. The TGI (NCI-H522 lung) was 31.4 µM, the GI50 (HCT-15 colon) was 5.49 µM and the TGI (HCT-15 colon) was over 100 µM. For the same compound, the GI50 (SK-MEL-5 melanoma) was 3.81 µM, the TGI (SK-MEL-5 melanoma) was 21.6 µM and the GI50 (UACC-62 melanoma) was 5.11 µM. For the same compound, the TGI (UACC-62 melanoma) was over 100 µM, the GI50 (NCI-H226 lung) was 5.97 µM and the TGI (NCI-H226 lung) was over 100 µM. It also gave a GI50 (SK-OV-3 ovarian) of 15.2 µM, a TGI (SK-OV-3 ovarian) of 58.6 µM and a GI50 (LOX IMVI melanoma) of 4.67 µM. It also gave a TGI (LOX IMVI melanoma) of over 100 µM, a GI50 (SF-295 CNS) of 4.7 µM and a TGI (SF-295 CNS) of 29.1 µM. The GI50 (SW-620 colon) was 10.7 µM, the TGI (SW-620 colon) was over 100 µM and the GI50 (HS 578T breast) was 7.22 µM. It also gave a TGI (HS 578T breast) of over 100 µM, a GI50 (SK-MEL-28 melanoma) of 19.5 µM and a TGI (SK-MEL-28 melanoma) of over 100 µM. For the same compound, the GI50 (SN12C renal) was 6 µM, the TGI (SN12C renal) was over 100 µM and the GI50 (HCT-116 colon) was 4.49 µM. For the same compound, the TGI (HCT-116 colon) was 63 µM, the GI50 (T-47D breast) was 2.79 µM and the TGI (T-47D breast) was 10.2 µM. The GI50 (DU-145 prostate) was 7.32 µM, the TGI (DU-145 prostate) was over 100 µM and the GI50 (MOLT-4 leukemia) was 6.22 µM. It also gave a TGI (MOLT-4 leukemia) of over 100 µM, a GI50 (MCF7 breast) of 4.96 µM and a TGI (MCF7 breast) of over 100 µM. It also gave a GI50 (A549 NSCLC) of 5.51 µM, a TGI (A549 NSCLC) of 60.4 µM and a GI50 (ACHN renal) of 6.97 µM. For the same compound, the TGI (ACHN renal) was 76.2 µM, the GI50 (TK-10 renal) was 9.98 µM and the TGI (TK-10 renal) was 46.7 µM. For the same compound, the GI50 (OVCAR-3 ovarian) was 3.69 µM, the TGI (OVCAR-3 ovarian) was over 100 µM and the GI50 (HOP-62 NSCLC) was 16.3 µM. For the same compound, the TGI (HOP-62 NSCLC) was 44.4 µM, the GI50 (U251 CNS) was 3.32 µM and the TGI (U251 CNS) was 22.6 µM. For the same compound, the GI50 (BT-549 breast) was 7.58 µM, the TGI (BT-549 breast) was 60.8 µM and the GI50 (MALME-3M melanoma) was 4.08 µM. The TGI (MALME-3M melanoma) was over 100 µM, the GI50 (SNB-75 CNS) was 29.8 µM and the TGI (SNB-75 CNS) was over 100 µM. It also gave a GI50 (UO-31 renal) of 2.76 µM, a TGI (UO-31 renal) of 36.5 µM and a GI50 (KM12 colon) of 6.68 µM. For the same compound, the TGI (KM12 colon) was over 100 µM, the GI50 (NCI-H460 lung) was 4.62 µM and the TGI (NCI-H460 lung) was 83.1 µM. For the same compound, the GI50 (A498 renal) was 1.73 µM, the TGI (A498 renal) was 9.34 µM and the GI50 (SF-539 CNS) was 13.3 µM. It also gave a TGI (SF-539 CNS) of 74.6 µM, a GI50 (SNB-19 CNS) of 6.33 µM and a TGI (SNB-19 CNS) of over 100 µM. The GI50 (IGROV1 ovarian) was 7.58 µM, the TGI (IGROV1 ovarian) was over 100 µM and the GI50 (OVCAR-4 ovarian) was 5.99 µM. The TGI (OVCAR-4 ovarian) was 68.3 µM.
`CCOC(=O)N1C=CC(=C2C(=C3C=CN(C(=O)OCC)C=C3)C(=C3C=CN(C(=O)OCC)C=C3)C2=C2C=CN(C(=O)OCC)C=C2)C=C1` was tested, and the TGI (UACC-257 melanoma) was over 100 µM, the TGI (COLO 205 colon) was over 100 µM and the TGI (CAKI-1 renal) was 50.6 µM. For the same compound, the TGI (K-562 leukemia) was 71.4 µM, the TGI (MDA-MB-231 breast) was 70.5 µM and the TGI (SF-268 CNS) was over 100 µM. For the same compound, the TGI (786-0 renal) was over 100 µM, the TGI (M14 melanoma) was over 100 µM and the TGI (RXF 393 renal) was over 100 µM. For the same compound, the TGI (PC-3 prostate) was 91.7 µM, the TGI (NCI/ADR-RES ovarian) was over 100 µM and the TGI (SR leukemia) was 26.3 µM. For the same compound, the TGI (OVCAR-8 ovarian) was 71.5 µM, the TGI (HOP-92 NSCLC) was 33.9 µM and the TGI (HT29 colon) was over 100 µM. It also gave a TGI (NCI-H23 lung) of over 100 µM, a TGI (EKVX NSCLC) of over 100 µM and a TGI (OVCAR-5 ovarian) of over 100 µM. For the same compound, the TGI (MDA-MB-435) was 98.8 µM, the TGI (SK-MEL-2 melanoma) was over 100 µM and the TGI (NCI-H522 lung) was 65.4 µM. The TGI (HCT-15 colon) was 44.1 µM, the TGI (SK-MEL-5 melanoma) was over 100 µM and the TGI (UACC-62 melanoma) was 45 µM. The TGI (HL-60(TB) leukemia) was over 100 µM, the TGI (NCI-H226 lung) was 71 µM and the TGI (SK-OV-3 ovarian) was over 100 µM. It also gave a TGI (LOX IMVI melanoma) of 45.8 µM, a TGI (SF-295 CNS) of 92.3 µM and a TGI (SW-620 colon) of over 100 µM. It also gave a TGI (HS 578T breast) of 85.6 µM, a TGI (SK-MEL-28 melanoma) of over 100 µM and a TGI (SN12C renal) of 92.4 µM. For the same compound, the TGI (HCT-116 colon) was 56.1 µM, the TGI (T-47D breast) was over 100 µM and the TGI (DU-145 prostate) was over 100 µM. For the same compound, the TGI (MOLT-4 leukemia) was 45.1 µM, the TGI (MCF7 breast) was over 100 µM and the TGI (A549 NSCLC) was over 100 µM. It also gave a TGI (ACHN renal) of 38.1 µM, a TGI (TK-10 renal) of 81.6 µM and a TGI (OVCAR-3 ovarian) of 81.1 µM. The TGI (HOP-62 NSCLC) was over 100 µM, the TGI (U251 CNS) was 91.7 µM and the TGI (BT-549 breast) was over 100 µM. It also gave a TGI (MALME-3M melanoma) of 64 µM, a TGI (SNB-75 CNS) of over 100 µM and a TGI (UO-31 renal) of 38.5 µM. It also gave a TGI (KM12 colon) of over 100 µM, a TGI (NCI-H460 lung) of over 100 µM and a TGI (SF-539 CNS) of over 100 µM. For the same compound, the TGI (SNB-19 CNS) was over 100 µM, the TGI (IGROV1 ovarian) was 85.3 µM and the TGI (OVCAR-4 ovarian) was over 100 µM.
